# From patent publication US11583516B2, “Dash inhibitors, and uses related thereto” (Trustees of Tufts College, priority 2016, dated 2023)
# Read-outs that look alike come from different tables or passages of the source.
# How the values were obtained:
# [1] = MTD (survival) of ARI-4268; assay type: in vivo; conditions: without PGE2 inhibitor, compared with Val-boroPro
# MB49 tumor = test: MB49 efficacy studies; assay type: in vivo, C57BL/6 mice; conditions: MB49 model, truncated dosing schedules
# PGE2 = test: Peritoneal PGE2 levels after dosing; assay type: in vivo; conditions: even at substantially higher doses than Val-boroPro
# [2] = in comparison to Val-boroPro
# CT26 cells = test: CT26 cell viability; assay type: cell-based
# G-CSF = test: Serum cytokine induction in mice (G-CSF screen); assay type: in vivo, BALB/c mice
# Source text: No. MKC00B) • IL-18 (R&D Systems, Cat. […] Systems, Cat. No. […])
# MOLM-13 cells = test: Cell line drug sensitivity (CellTiter-Glo); assay type: cell-based
# Procedure: (§1) SET-2, RS4;11, and SKM-1 cells were purchased from DSMZ. HL-60, MV4;11, OCI-AML2, NB4, MOLM-13, NOMO-1, DAOY, HEL, IMR-5, K562, Kasumi-1, ONS-76, RDES-1, and TC-71 cells were a gift from Alex Kentsis and verified using STR genotyping (Genetica). […] MCF-7, Jurkat, THP-1, U937, HL-60, MV4;11, OCI-AML2, NB4, MOLM-13, NOMO-1, HEL, K562, SET-2, RS4;11, SKM-1 and Kasumi-1 were grown in RPMI-1640 medium with 10% FBS. All cells were grown at 37° C. in a 5% CO2 incubator. Cell lines were tested for mycoplasma using the MycoAlert Mycoplasma Detection Kit (Lonza).
# (§2) Cells were plated (2000 cells/well) in white, 384-well clear bottom plates using an EL406 Microplate Washer/Dispenser (BioTek) in 25 μL final volume of media. Compounds were added using a pintool (CyBio) and cells were incubated for 48 h at 37° C. Assay plates were then removed from the incubator and allowed to equilibrate to room temperature on the bench top before addition of 10 μL of CellTiter-Glo reagent (Promega) according to the manufacturer's instructions. Assay plates were shaken on an orbital shaker for 2 minutes and incubated at room temperature on the bench top for 10 minutes. Luminescence was then read using a Cytation 5 Cell Imaging Multi-Mode Reader (BioTek). (FIG. 6)
# OCI-AML3 cells = test: Cell line drug sensitivity (CellTiter-Glo); assay type: cell-based
# Procedure: as §1, §2
# Jurkat cells = test: Cell line drug sensitivity (CellTiter-Glo); assay type: cell-based; conditions: 48 h
# Procedure: as §1, §2
# U937 cells = test: Cell line drug sensitivity (CellTiter-Glo); assay type: cell-based
# Procedure: as §1, §2
# NOMO-1 cells = test: Cell line drug sensitivity (CellTiter-Glo); assay type: cell-based
# Procedure: as §1, §2
# K562 cells = test: Cell line drug sensitivity (CellTiter-Glo); assay type: cell-based
# Procedure: as §1, §2
# Kasumi-1 cells = test: Cell line drug sensitivity (CellTiter-Glo); assay type: cell-based
# Procedure: as §1, §2
# ONS-76 cells = test: Cell line drug sensitivity (CellTiter-Glo); assay type: cell-based
# Procedure: as §1, §2
# SKM-1 cells = test: Cell line drug sensitivity (CellTiter-Glo); assay type: cell-based
# Procedure: as §1, §2
# THP-1 cells = test: Cell line drug sensitivity (CellTiter-Glo); assay type: cell-based
# Procedure: as §1, §2
# DAOY cells = test: Cell line drug sensitivity (CellTiter-Glo); assay type: cell-based; conditions: 48 h
# Procedure: as §1, §2
# MCF7 cells = test: Cell line drug sensitivity (CellTiter-Glo); assay type: cell-based
# Procedure: as §1, §2
# HL-60 cells = test: Cell line drug sensitivity (CellTiter-Glo); assay type: cell-based
# Procedure: as §1, §2
# HEL cells = test: Cell line drug sensitivity (CellTiter-Glo); assay type: cell-based
# Procedure: as §1, §2
# IMR-5 cells = test: Cell line drug sensitivity (CellTiter-Glo); assay type: cell-based
# Procedure: as §1, §2
# KG-1 cells = test: Cell line drug sensitivity (CellTiter-Glo); assay type: cell-based
# Procedure: as §1, §2
# HT-1080 cells = test: Cell line drug sensitivity (CellTiter-Glo); assay type: cell-based
# Procedure: as §1, §2
# SET-2 cells = test: Cell line drug sensitivity (CellTiter-Glo); assay type: cell-based
# Procedure: as §1, §2
# RDES-1 cells = test: Cell line drug sensitivity (CellTiter-Glo); assay type: cell-based; conditions: 48 h
# Procedure: as §1, §2
# TC-71 cells = test: Cell line drug sensitivity (CellTiter-Glo); assay type: cell-based
# Procedure: as §1, §2
# rhabdomyosarcoma = conditions: established rhabdomyosarcoma, preclinical; cited from earlier work
# RS4;11 cells = test: Cell line drug sensitivity (CellTiter-Glo); assay type: cell-based; conditions: RS4;11, AML/B-ALL; 48 h; read-out: IC50
# MV4;11 cells = test: Cell line drug sensitivity (CellTiter-Glo); assay type: cell-based; conditions: Homo sapiens, MV4-11, 48 h
# NB4 cells = test: Cell line drug sensitivity (CellTiter-Glo); assay type: cell-based; conditions: Homo sapiens, NB-4, 48 h
# AML cell lines = test: AML cell line sensitivity, summary over the panel; assay type: cell-based; conditions: all of these lines
# Procedure: as §1, §2
smiles,measurement,setting,value
CC(C)(F)[C@H](N)C(=O)N1CCC[C@H]1B(O)O (relative stereo) [ARI-4268],MTD (survival),[1],dramatically increased MTD (survival) without the need for a PGE2 inhibitor
same,Antitumor activity,MB49 tumor,displays antitumor activity in the MB49 mouse tumor model at doses indicating improved therapeutic index
same,Peritoneal PGE2 levels,PGE2,does not induce peritoneal PGE2 levels to the same extent as Val-boroPro
same,Oral activity,[2],good oral activity—on par with highly orally active Val-boroPro
NC(N)=NCCC[C@H](N)C(=O)N1CCC[C@H]1B(O)O [Arg-boroPro],EC50,CT26 cells,> 1000 µM
"CC(C)(C)[C@H](N)C(=O)N1CCC[C@H]1B(O)O [ARI-4175, t-butylglycine-boroProline]",Average [G-CSF] at 6 hrs,G-CSF; 20 μg/animal PO,19000 pg/mL
same,Average [G-CSF] at 6 hrs,G-CSF; 20 μg/animal SC,65000 pg/mL
same,IC50,"MOLM-13 cells; MOLM-13, AML M5, 48 h, read-out: IC50",28 nM
same,IC50,"OCI-AML3 cells; OCI-AML3, AML M4, 48 h, read-out: IC50",19 nM
same,IC50,"Jurkat cells; T-ALL, read-out: IC50",> 60 µM
same,IC50,"U937 cells; U937, AML/histiocytic lymphoma M5, 48 h, read-out: IC50",> 60 µM
same,IC50,"NOMO-1 cells; NOMO-1, AML M5, 48 h, read-out: IC50",30 nM
same,IC50,"K562 cells; K562, CML/Erythroleukemia, 48 h, read-out: IC50",> 60 µM
same,IC50,"Kasumi-1 cells; Kasumi-1, AML M2, 48 h, read-out: IC50",> 60 µM
same,IC50,"ONS-76 cells; ONS-76, Medulloblastoma, 48 h, read-out: IC50",> 60 µM
same,IC50,"SKM-1 cells; SKM-1, AML M5, 48 h, read-out: IC50",7 nM
same,IC50,"THP-1 cells; THP-1, AML M5, 48 h, read-out: IC50",23 nM
same,IC50,"DAOY cells; DAOY, Medulloblastoma, read-out: IC50",> 60 µM
same,IC50,"MCF7 cells; MCF7, Breast, 48 h, read-out: IC50",> 60 µM
same,IC50,"HL-60 cells; HL-60, AML M2, 48 h, read-out: IC50",16 nM
same,IC50,"HEL cells; AML/Erythroleukemis M6, 48 h, read-out: IC50",> 60 µM
same,IC50,"IMR-5 cells; IMR-5, Neuroblastoma, 48 h, read-out: IC50",> 60 µM
same,IC50,"KG-1 cells; KG-1, AML M0, 48 h, read-out: IC50",35 nM
same,IC50,"HT-1080 cells; HT-1080, Fibrosarcoma, 48 h, read-out: IC50",> 60 µM
same,IC50,"SET-2 cells; SET-2, AML/MPN, 48 h, read-out: IC50",2 nM
same,IC50,"RDES-1 cells; RDES-1, Ewing's sarcoma, read-out: IC50",> 60 µM
same,IC50,"TC-71 cells; TC-71, Ewing's sarcoma, 48 h, read-out: IC50",> 60 µM
same,Anti-tumor activity,rhabdomyosarcoma,significant immune-dependent anti-tumor activity
same,EC50,CT26 cells,> 1000 µM
same,IC50,RS4;11 cells,96 nM
"N[C@H](C(=O)N1CCC[C@H]1B(O)O)C12CC3CC(CC(C3)C1)C2 (relative stereo) [ARI-5544, Gly(1-adamantyl)-boroPro]",IC50,MV4;11 cells,2 nM
same,IC50,"MOLM-13 cells; Homo sapiens, MOLM-13, 48 h",5 nM
same,IC50,"OCI-AML3 cells; Homo sapiens, OCI-AML-3, 48 h",2 nM
same,IC50,Jurkat cells; Homo sapiens,> 60 µM
same,IC50,"U937 cells; Homo sapiens, U-937, 48 h",> 60 µM
same,IC50,"NOMO-1 cells; Homo sapiens, NOMO-1, 48 h",5 nM
same,IC50,"K562 cells; Homo sapiens, K562, 48 h",> 60 µM
same,IC50,"Kasumi-1 cells; Homo sapiens, Kasumi 1, 48 h",> 60 µM
same,IC50,"ONS-76 cells; Homo sapiens, ONS-76, 48 h",> 60 µM
same,IC50,"SKM-1 cells; Homo sapiens, SKM-1, 48 h",0.4 nM
same,IC50,"THP-1 cells; Homo sapiens, THP-1, 48 h",5 nM
same,IC50,"DAOY cells; Homo sapiens, Daoy",> 60 µM
same,IC50,"MCF7 cells; Homo sapiens, MCF7, 48 h",> 60 µM
same,IC50,"HL-60 cells; Homo sapiens, HL-60, 48 h",3 nM
same,IC50,"HEL cells; Homo sapiens, 48 h",> 60 µM
same,IC50,"IMR-5 cells; Homo sapiens, IMR-5, 48 h",> 60 µM
same,IC50,"KG-1 cells; Homo sapiens, KG-1, 48 h",5 nM
same,IC50,"HT-1080 cells; Homo sapiens, HT-1080, 48 h",> 60 µM
same,IC50,"SET-2 cells; Homo sapiens, SET-2, 48 h",0.2 nM
same,IC50,RDES-1 cells,> 60 µM
same,IC50,"TC-71 cells; TC-71, 48 h",> 60 µM
same,IC50,NB4 cells,3 nM
same,IC50 values over the sensitive AML cell lines,AML cell lines,low (single digit) nanomolar
same,EC50,"CT26 cells; Mus musculus, CT26",> 100 µM
CC(C)C[C@H](NC(=O)[C@H](Cc1ccccc1)NC(=O)c1cnccn1)B(O)O [Bortezomib],EC50,"CT26 cells; Mus musculus, CT26",0.036 µM
